From patent US20130012497A1, “METHODS FOR DETECTING ADHD SUSCEPTIBILITY AND […] AND LONG TERM OUTCOME OF ADHD SYMPTOMS” (The United States of America, as represented by the …, priority 2011, published 2013)

System: ADHD symptoms
Test: Treatment response to stimulant medication on the SWAN scale, by LPHN3-11q genotype
Format: in vivo, human
Details: 82 individuals, US1 sample
Method: Eighty-two individuals with complete genotype and phenotype information were sampled from the original 240 trios in the US1 sample of Example 1. A comparative analyses regarding stimulant treatment was done as described in Arcos-Burgos et al., Mol. Psychiatry, 15(11): 1053-66 (2010). An analysis was performed to determine the relationship of SWAN scale (Strengths and Weaknesses of ADHD Symptoms and Normal Behavior scale) questions individually as well as inattentive and hyperactive combined dimensions (questions 1-9 indicate inattentive symptoms and questions 10-18 indicate hyperactive symptoms), prior to and after starting treatment with the stimulant methylphenidate.

## COC(=O)C(c1ccccc1)C1CCCCN1 (centres unmarked) [methylphenidate]
Individuals having AA at rs6551665 and fewer than two copies of the susceptibility haplotype on 11q
  response to stimulant medication treatment (SWAN scale): poor response
Individuals having GG at rs6551665 and two copies of the susceptibility haplotype on 11q
  change of symptoms after treatment with stimulant medication (SWAN scale question 18, hyperactive-impulsive dimension): significant improvement of symptoms
